Data published in patent US10774051B2, “6-membered heterocyclic derivatives and pharmaceutical composition comprising the same” (Shionogi & Co., Ltd., priority 2015, dated 2020).
Like-named read-outs stand apart in the source and are kept apart here.

Target: human P2X7 receptor (Homo sapiens, UniProt Q99572, R270H/Y155H)
Assay: Evaluation of human P2X7 receptor inhibitory activity (Yo-Pro uptake, BzATP stimulation, FLIPR TETRA)
Type: cell-based
Summary of the method: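 Yo-Pro dye uptake triggered by BzATP was monitored by FLIPR in human P2X7-transfected 1321N1 cells (SNP variant) in HEPES-buffered HBSS, pH 7.4-7.5. Compound was dispensed 8 min post-stimulation, then signal read for 20 min; IC50 derived logistically from inhibition of the fluorescence range.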

[1] = antagonistic activity for the human P2X7 receptor, read-out: IC50

Structure (SMILES)	IC50 [1] [nM]	IC50 (1321N1 cells stably expressing human P2X7 receptor, BzATP stimulation, Yo-Pro uptake, read-out: IC50 (antagonistic activity for the human P2X7 receptor)) [nM]
COCCOc1cc(Nc2nc(=O)c(F)cn2Cc2cc(F)c(F)c(F)c2)c(C)cc1F [Compound I-1204]	< 10	–
Cc1ccc(OCCO)cc1Nc1nc(=O)c(F)cn1Cc1cc(F)c(F)c(F)c1 [Compound I-1205]	< 10	–
Cc1cc(Nc2nc(=O)c(F)cn2Cc2cc(F)cc(F)c2)c(C)cc1Cl [Compound I-1206]	< 10	–
Cc1cc(Nc2nc(=O)c(F)cn2Cc2cc(F)c(F)c(F)c2)c(C)cc1Cl [Compound I-1207]	< 10	–
CCc1cc(F)ccc1Nc1nc(=O)c(F)cn1Cc1cc(F)c(F)c(F)c1 [Compound I-1208]	< 10	–
Cc1ccc(Cl)cc1Nc1nc(=O)c(F)cn1Cc1cc(F)c(F)c(F)c1 [Compound I-1209]	< 10	–
Cc1cc(OC(F)F)c(C)cc1Nc1nc(=O)c(F)cn1Cc1cc(F)c(F)c(F)c1 [Compound I-1210]	< 10	–
CCc1cc(F)c(OC)cc1Nc1nc(=O)c(F)cn1Cc1cc(F)c(F)c(F)c1 [Compound I-1211]	< 10	–
Cc1cc(S(C)(=O)=O)cc(Nc2nc(=O)c(F)cn2Cc2cc(F)c(F)c(F)c2)c1C [Compound I-1212]	< 10	–
Cc1c(F)cccc1Nc1nc(=O)c(F)cn1Cc1ccc(F)c(Cl)c1 [Compound I-1213]	< 10	–
CCc1cc(OC)ccc1Nc1nc(=O)c(F)cn1Cc1cc(F)cc(F)c1 [Compound I-1214]	< 10	–
CCOc1ccc(F)c(Nc2nc(=O)c(F)cn2Cc2cc(F)c(F)c(F)c2)c1 [Compound I-1215]	< 10	–
Cc1ccc(-c2nnco2)cc1Nc1nc(=O)c(F)cn1Cc1cc(F)c(F)c(F)c1 [Compound I-1216]	–	6
CCOc1ccc(Cl)c(Nc2nc(=O)c(F)cn2Cc2cc(F)c(F)c(F)c2)c1 [Compound I-1217]	< 10	–
CCc1ccc(F)c(Nc2nc(=O)c(F)cn2Cc2cc(F)c(F)c(F)c2)c1 [Compound I-1218]	< 10	–
Cc1c(Cl)cccc1Nc1nc(=O)c(F)cn1Cc1cc(F)c(F)c(F)c1 [Compound I-1219]	< 10	–

Structure (SMILES)	IC50 [1] [nM]	IC50 (1321N1 cells stably expressing human P2X7 receptor, BzATP stimulation, Yo-Pro uptake, read-out: IC50 (antagonistic activity for the human P2X7 receptor)) [nM]
CCc1cc(OC)c(OC)cc1Nc1nc(=O)c(F)cn1Cc1cc(F)c(F)c(F)c1 [Compound I-1220]	< 10	–
Cc1ccc(-c2cccn(C)c2=O)cc1Nc1nc(=O)c(F)cn1Cc1cc(F)c(F)c(F)c1 [Compound I-1221]	< 10	–
C=C1C(c2cc(Nc3nc(=O)c(F)cn3Cc3cc(F)c(F)c(F)c3)c(C)cc2F)=CC=CN1C [Compound I-1222]	< 10	–
CCOc1c(C)cccc1Nc1nc(=O)c(F)cn1Cc1cc(F)c(F)c(F)c1 [Compound I-1223]	< 10	–
Cc1cc(Nc2nc(=O)c(F)cn2Cc2cc(F)cc(F)c2)c(Cl)cc1F [Compound I-1224]	< 10	–
Cc1cc(Nc2nc(=O)c(F)cn2Cc2cc(F)c(F)c(F)c2)c(Cl)cc1F [Compound I-1225]	< 10	–
CCc1ccc(C)c(Nc2nc(=O)c(F)cn2Cc2cc(F)c(F)c(F)c2)c1 [Compound I-1226]	< 10	–
Cc1cc(Nc2nc(=O)c(F)cn2Cc2cc(F)c(F)c(F)c2)c(C)cc1F [Compound I-1227]	< 10	–
CCc1ccc(Nc2nc(=O)c(F)cn2Cc2cc(F)cc(F)c2)c(C)c1 [Compound I-1228]	< 10	–
COCCn1ccc2c(C)c(Nc3nc(=O)c(F)cn3Cc3cc(F)cc(F)c3)ccc21 [Compound I-1229]	< 10	–
Cc1cc(C)c(OC(F)F)cc1Nc1nc(=O)c(F)cn1Cc1cc(F)c(F)c(F)c1 [Compound I-1230]	< 10	–
Cc1ccc(CF)cc1Nc1nc(=O)c(F)cn1Cc1cc(F)c(F)c(F)c1 [Compound I-1231]	< 10	–
COc1cc(C)c(C)c(Nc2nc(=O)c(F)cn2Cc2cc(F)cc(F)c2)c1 [Compound I-1233]	< 10	–
Cc1cc(Nc2nc(=O)c(F)cn2Cc2cc(F)cc(F)c2)c(C)nc1OC(F)F [Compound I-1234]	< 10	–
COc1cc(Nc2nc(=O)c(F)cn2Cc2cc(F)c(F)c(F)c2)c(C)nc1OC [Compound I-1235]	< 10	–
Cc1cc(CO)ccc1Nc1nc(=O)c(F)cn1Cc1cc(F)c(F)c(F)c1 [Compound I-1236]	< 10	–
